Data: US9169195B2, “Amides, use of amides as solvents for organic compounds, compositions and emulsions containing amides, and method for treating a plant” (AKZO NOBEL CHEMICALS INTERNATIONAL B.V., priority 2009, dated 2015)

Legend:
[1] = Emulsion dilution: crystallisation of tebuconazole in emulsions, ocular inspection; format: physicochemical; design: key: +: no crystals visible; −: crystals visible; details: 5° C.
Protocol: Formulations containing 250 g/l of tebuconazole was formulated together with 100 g/l of surfactant blend (CaDDBS and tristyrylphenol ethoxylate (15 EO), 50:50) and diluted to a final volume of one liter with each one of the solvents N,N-dimethyl decanamide, N-methyl-N-octyl propanamide, N-methyl-N-(2-propylheptyl) formamide or N-methyl-N-(n-decyl) formamide. Each formulation was emulsified into tap water at ambient temperature (˜22° C.) in the volume ratio (formulation:water) 1:100, 1:150, 1:200 and 1:500 dilution. The emulsions were poured into 100 ml conical glass centrifuge tubes and monitored over time at three different temperatures 5, 20 and 40° C. for observation of crystallisation of active ingredient (tebuconazole).
Crystallization was judged by ocular inspection with the naked eye, and in the table below, the following is used: […]

[2] = Solubility of active ingredients in the amide solvents (solvent added until dissolved, stable 24 h)
Protocol: Various agriculturally active ingredients were dissolved in both N-methyl-N-(2-propylheptyl)-formamide and N-methyl-N-(n-decyl)-formamide in order to evaluate the solubility of the active ingredients in the amides.
This was done by adding the active ingredient (AI) to a beaker and thereafter adding the solvent until the entire AI had been dissolved. The solutions were continually stirred at a temperature of 23° C. during the experiments. When everything had been dissolved, the beakers were left without stirring for 24 h to see if the solution was stable (i.e. no crystallization).

[3] = 3 h, formulation:tap water 1:100, 250 g/l tebuconazole
[4] = 3 h, formulation:tap water 1:150, 250 g/l tebuconazole
[5] = 3 h, formulation:tap water 1:200, 250 g/l tebuconazole
[6] = 3 h, formulation:tap water 1:500, 250 g/l tebuconazole
[7] = 6 h, formulation:tap water 1:100, 250 g/l tebuconazole
[8] = 6 h, formulation:tap water 1:150, 250 g/l tebuconazole
[9] = 6 h, formulation:tap water 1:200, 250 g/l tebuconazole
[10] = 6 h, formulation:tap water 1:500, 250 g/l tebuconazole
[11] = 12 h, formulation:tap water 1:100, 250 g/l tebuconazole
[12] = 12 h, formulation:tap water 1:150, 250 g/l tebuconazole
[13] = 12 h, formulation:tap water 1:200, 250 g/l tebuconazole
[14] = 12 h, formulation:tap water 1:500, 250 g/l tebuconazole
[15] = 24 h, formulation:tap water 1:100, 250 g/l tebuconazole
[16] = 24 h, formulation:tap water 1:150, 250 g/l tebuconazole
[17] = 24 h, formulation:tap water 1:200, 250 g/l tebuconazole
[18] = 24 h, formulation:tap water 1:500, 250 g/l tebuconazole
[19] = 36 h, formulation:tap water 1:100, 250 g/l tebuconazole
[20] = 36 h, formulation:tap water 1:150, 250 g/l tebuconazole
[21] = 36 h, formulation:tap water 1:200, 250 g/l tebuconazole
[22] = 36 h, formulation:tap water 1:500, 250 g/l tebuconazole
[23] = 48 h, formulation:tap water 1:100, 250 g/l tebuconazole
[24] = 48 h, formulation:tap water 1:150, 250 g/l tebuconazole
[25] = 48 h, formulation:tap water 1:200, 250 g/l tebuconazole
[26] = 48 h, formulation:tap water 1:500, 250 g/l tebuconazole
[27] = 72 h, formulation:tap water 1:100, 250 g/l tebuconazole
[28] = 72 h, formulation:tap water 1:150, 250 g/l tebuconazole
[29] = 72 h, formulation:tap water 1:200, 250 g/l tebuconazole
[30] = 72 h, formulation:tap water 1:500, 250 g/l tebuconazole
[31] = 96 h, formulation:tap water 1:100, 250 g/l tebuconazole
[32] = 96 h, formulation:tap water 1:150, 250 g/l tebuconazole
[33] = 96 h, formulation:tap water 1:200, 250 g/l tebuconazole
[34] = 96 h, formulation:tap water 1:500, 250 g/l tebuconazole

Row | Structure (SMILES) | Crystallisation of tebuconazole in emulsion [1, 3] | Crystallisation of tebuconazole in emulsion [1, 4] | Crystallisation of tebuconazole in emulsion [1, 5] | Crystallisation of tebuconazole in emulsion [1, 6] | Crystallisation of tebuconazole in emulsion [1, 7] | Crystallisation of tebuconazole in emulsion [1, 8] | Crystallisation of tebuconazole in emulsion [1, 9] | Crystallisation of tebuconazole in emulsion [1, 10] | Crystallisation of tebuconazole in emulsion [1, 11] | Crystallisation of tebuconazole in emulsion [1, 12] | Crystallisation of tebuconazole in emulsion [1, 13] | Crystallisation of tebuconazole in emulsion [1, 14] | Crystallisation of tebuconazole in emulsion [1, 15] | Crystallisation of tebuconazole in emulsion [1, 16] | Crystallisation of tebuconazole in emulsion [1, 17] | Crystallisation of tebuconazole in emulsion [1, 18] | Crystallisation of tebuconazole in emulsion [1, 19] | Crystallisation of tebuconazole in emulsion [1, 20] | Crystallisation of tebuconazole in emulsion [1, 21] | Crystallisation of tebuconazole in emulsion [1, 22] | also measured
1 | CCCCCCCCCC(=O)N(C)C [N,N-dimethyl decanamide] | + | + | + | + | + | + | + | − | + | + | − | − | + | − | − | − | + | − | − | − | Crystallisation of tebuconazole in emulsion [1, 23]: +; Crystallisation of tebuconazole in emulsion [1, 24]: −; Crystallisation of tebuconazole in emulsion [1, 25]: −; Crystallisation of tebuconazole in emulsion [1, 26]: −; Crystallisation of tebuconazole in emulsion [1, 27]: +; Crystallisation of tebuconazole in emulsion [1, 28]: −; Crystallisation of tebuconazole in emulsion [1, 29]: −; Crystallisation of tebuconazole in emulsion [1, 30]: −; Crystallisation of tebuconazole in emulsion [1, 31]: +; Crystallisation of tebuconazole in emulsion [1, 32]: −; Crystallisation of tebuconazole in emulsion [1, 33]: −; Crystallisation of tebuconazole in emulsion [1, 34]: −
2 | CON=C(C(=O)OC)c1ccccc1CON=C(C)c1cccc(C(F)(F)F)c1 [Trifloxystrobin] |  |  |  |  |  |  |  |  |  |  |  |  |  |  |  |  |  |  |  |  | Solubility in N-Methyl-N-(2-propylheptyl) formamide [2]: 23 g Al/100 g solvent; Solubility in N-Methyl-N-(n-decyl) formamide [2]: 23 g Al/100 g solvent
3 | CCCCCCCCCCN(C)C=O [N-methyl-N-(n-decyl) formamide] | + | + | + | + | + | + | + | + | + | + | + | + | + | + | + | + | + | + | + | + | Crystallisation of tebuconazole in emulsion [1, 23]: +; Crystallisation of tebuconazole in emulsion [1, 24]: +; Crystallisation of tebuconazole in emulsion [1, 25]: +; Crystallisation of tebuconazole in emulsion [1, 26]: +; Crystallisation of tebuconazole in emulsion [1, 27]: +; Crystallisation of tebuconazole in emulsion [1, 28]: +; Crystallisation of tebuconazole in emulsion [1, 29]: +; Crystallisation of tebuconazole in emulsion [1, 30]: +; Crystallisation of tebuconazole in emulsion [1, 31]: +; Crystallisation of tebuconazole in emulsion [1, 32]: +; Crystallisation of tebuconazole in emulsion [1, 33]: +; Crystallisation of tebuconazole in emulsion [1, 34]: +
4 | CCCCCCCCN(C)C(=O)CC [N-methyl-N-octyl propanamide] | + | + | + | + | + | + | + | − | + | + | − | − | + | + | − | − | + | + | − | − | Crystallisation of tebuconazole in emulsion [1, 23]: +; Crystallisation of tebuconazole in emulsion [1, 24]: −; Crystallisation of tebuconazole in emulsion [1, 25]: −; Crystallisation of tebuconazole in emulsion [1, 26]: −; Crystallisation of tebuconazole in emulsion [1, 27]: +; Crystallisation of tebuconazole in emulsion [1, 28]: −; Crystallisation of tebuconazole in emulsion [1, 29]: −; Crystallisation of tebuconazole in emulsion [1, 30]: −; Crystallisation of tebuconazole in emulsion [1, 31]: +; Crystallisation of tebuconazole in emulsion [1, 32]: −; Crystallisation of tebuconazole in emulsion [1, 33]: −; Crystallisation of tebuconazole in emulsion [1, 34]: −
5 | CCCCCC(CCC)CN(C)C=O (stereo not shown) [N-methyl-N-(2-propylheptyl) formamide, N-methyl-N-(2-propylheptyl)-formamide] | + | + | + | + | + | + | + | + | + | + | + | + | + | + | + | + | + | + | + | + | Crystallisation of tebuconazole in emulsion [1, 23]: +; Crystallisation of tebuconazole in emulsion [1, 24]: +; Crystallisation of tebuconazole in emulsion [1, 25]: +; Crystallisation of tebuconazole in emulsion [1, 26]: +; Crystallisation of tebuconazole in emulsion [1, 27]: +; Crystallisation of tebuconazole in emulsion [1, 28]: +; Crystallisation of tebuconazole in emulsion [1, 29]: +; Crystallisation of tebuconazole in emulsion [1, 30]: +; Crystallisation of tebuconazole in emulsion [1, 31]: +; Crystallisation of tebuconazole in emulsion [1, 32]: +; Crystallisation of tebuconazole in emulsion [1, 33]: +; Crystallisation of tebuconazole in emulsion [1, 34]: +
